# Columns and labels:
# DNA sequence ACTACT = experiment: Quantitative DNase I footprint titration, site ACTACT; assay type: binding; conditions: DNase I footprinting, pH 7.0, 22° C.
# Procedure: (§1) A number of compounds according to this invention were screened for their ability to bind to three DNA sites, using DNase I footprinting.
# (§2) The target sites and their complements are identified in bold underline.
# (§3) The resulting duplexes were ligated to the large pUC19 XbaI/Pstl restriction fragment. […] (Sambrook et al., ibid.)
# (§4) The polyamides were allowed to equilbrate at 22° C. for 16 h.
# DNA sequence AATACT = experiment: Quantitative DNase I footprint titration, site AATACT; assay type: binding; conditions: DNase I footprinting, pH 7.0, 22° C.
# Procedure: as §1, §2, §3, §4
# DNA sequence ACTAGT = experiment: Quantitative DNase I footprint titration, site ACTAGT; assay type: binding; conditions: DNase I footprinting, pH 7.0, 22° C.
# Procedure: as §1, §2, §3, §4
# DNA sequence ATTACT = experiment: Quantitative DNase I footprint titration, site ATTACT; assay type: binding; conditions: DNase I footprinting, pH 7.0, 22° C.
# Procedure: as §1, §2, §3, §4
# DNA sequence AGTACT = experiment: Quantitative DNase I footprint titration, site AGTACT; assay type: binding; conditions: DNase I footprinting, pH 7.0, 22° C.
# Procedure: as §1, §2, §3, §4
# S. aureus ATCC 27660 = experiment: MIC against drug-resistant bacteria, S. aureus ATCC 27660; assay type: cell-based; conditions: organism B = S. aureus ATCC 27660, methycillin resistant strain (MRSA)
# Procedure: (§5) Compounds according to this invention were screened for their in vitro activities against selected species of bacteria and fungi. The minimal inhibition concentration (MIC) of these compounds was determined using the National Committee for Clinical Laboratory Standards (NCCLS) broth microdilution assay in microtiter plates, as set forth in: (1) the guidelines of the National Committee for Clinical Laboratory Standards (NCCLS) Document M7-A4 (NCCLS, 1997); (2) the guidelines of the National Committee for Clinical Laboratory Standards (NCCLS) Document M11-A4 (NCCLS, 1997); and (3) the guidelines and reference method of the National Committee for Clinical Laboratory Standards (NCCLS) Document M27-T (NCCLS, 1995). For antifungal essays, the method recommended in Murray, PR., 1995 Manual of Clinical Microbiology (ASM Press, Washington, D.C.), was employed.
# (§6) Further, compounds (I) are effective against drug-resistant bacteria, as evidenced by the data in Table 2 below:
# (§7) ATCC 27660 and ATCC 33591 are methycillin resistant strains of S. aureus (MRSA's). ATCC 51559 is a vancomycin resistant strain of E. faecium (VRE). ATCC 12228 is a methycillin resistant strain of S. epidermis (MRSE). ATCC 51422 is a penicillin resistant strain of S. pneumoniae.
# C. albicans ATCC 38247 = experiment: NCCLS broth microdilution MIC (antifungal), C. albicans ATCC 38247; assay type: cell-based; conditions: organism B = C. albicans ATCC 38247
# Procedure: as §5
# S. pneumoniae ATCC 49619 = experiment: NCCLS broth microdilution MIC, S. pneumoniae ATCC 49619; assay type: cell-based; conditions: organism F = S. pneumoniae ATCC 49619
# Procedure: as §5
# E. faecalis ATCC 29212 = experiment: NCCLS broth microdilution MIC, E. faecalis ATCC 29212; assay type: cell-based; conditions: organism D = E. faecalis ATCC 29212
# Procedure: as §5
# S. aureus ATCC 13709 = experiment: NCCLS broth microdilution MIC, S. aureus ATCC 13709; assay type: cell-based; conditions: organism E = S. aureus ATCC 13709
# Procedure: as §5
# B. cereus ATCC 11778 = experiment: NCCLS broth microdilution MIC, B. cereus ATCC 11778; assay type: cell-based; conditions: organism A = B. cereus ATCC 11778
# Procedure: as §5
# E. coli ATCC 25922 = experiment: NCCLS broth microdilution MIC, E. coli ATCC 25922; assay type: cell-based; conditions: organism C = E. coli ATCC 25922
# Procedure: as §5
# S. epidermis ATCC 12228 = experiment: MIC against drug-resistant bacteria, S. epidermis ATCC 12228; assay type: cell-based; conditions: organism D = S. epidermis ATCC 12228, methycillin resistant strain (MRSE)
# Procedure: as §5, §6, §7
# E. faecium ATCC 51559 = experiment: MIC against drug-resistant bacteria, E. faecium ATCC 51559; assay type: cell-based; conditions: organism A = E. faecium ATCC 51559, vancomycin resistant strain (VRE)
# Procedure: as §5, §6, §7
# S. pneumoniae ATCC 51422 = experiment: MIC against drug-resistant bacteria, S. pneumoniae ATCC 51422; assay type: cell-based; conditions: organism E = S. pneumoniae ATCC 51422, penicillin resistant strain
# Procedure: as §5, §6, §7
# S. aureus ATCC 29213 = experiment: NCCLS broth microdilution MIC, S. aureus ATCC 29213; assay type: cell-based; conditions: organism G = S. aureus ATCC 29213
# Procedure: as §5
# S. aureus ATCC 33591 = experiment: MIC against drug-resistant bacteria, S. aureus ATCC 33591; assay type: cell-based; conditions: organism C = S. aureus ATCC 33591, methycillin resistant strain (MRSA)
# Procedure: as §5, §6, §7
Compound,Minimum Inhibitoty Concentration (MIC) (S. aureus ATCC 27660),Minimum Inhibitory Concentration (MIC) (C. albicans ATCC 38247) [µg/mL],Minimum Inhibitory Concentration (MIC) (S. pneumoniae ATCC 49619),Minimum Inhibitory Concentration (MIC) (E. faecalis ATCC 29212),Minimum Inhibitory Concentration (MIC) (B. cereus ATCC 11778),Minimum Inhibitory Concentration (MIC) (E. coli ATCC 25922),Minimum Inhibitoty Concentration (MIC) (S. epidermis ATCC 12228),Minimum Inhibitoty Concentration (MIC) (E. faecium ATCC 51559),Minimum Inhibitoty Concentration (MIC) (S. pneumoniae ATCC 51422),Minimum Inhibitoty Concentration (MIC) (S. aureus ATCC 33591),other results
"CN(C)CCCNC(=O)CCNC(=O)c1cc(NC(=O)c2cc(NC(=O)c3cc(NC(=O)c4nc(NC(=O)CCCNC(=O)c5cc(NC(=O)c6cc(NC(=O)c7cc(NC(=O)c8nsc(NCCCN(C)C)c8Cl)cn7C)cn6C)cn5C)cn4C)cn3C)cn2C)cn1C [B, reference compound]",,,,,,,,,,,"Association Constant, Ka (DNA sequence ACTACT): 7e+09 M⁻¹; Association Constant, Ka (DNA sequence AATACT): 7e+09 M⁻¹; Association Constant, Ka (DNA sequence ACTAGT): <1e+08 M⁻¹; Association Constant, Ka (DNA sequence ATTACT): 7e+09 M⁻¹; Association Constant, Ka (DNA sequence AGTACT): 1e+11 M⁻¹"
"CN(C)CCCNC(=O)CCNC(=O)c1cc(NC(=O)c2cc(NC(=O)c3cc(NC(=O)c4nc(NC(=O)CCCNC(=O)c5cc(NC(=O)c6cc(NC(=O)c7cc(NC(=O)c8nccn8C)cn7C)cn6C)cn5C)cn4C)cn3C)cn2C)cn1C [Compound A, reference compound]",,,,,,,,,,,"Association Constant, Ka (DNA sequence ACTACT): 5e+08 M⁻¹; Association Constant, Ka (DNA sequence AATACT): 500000 M⁻¹; Association Constant, Ka (DNA sequence ACTAGT): <1e+08 M⁻¹; Association Constant, Ka (DNA sequence ATTACT): 5e+08 M⁻¹; Association Constant, Ka (DNA sequence AGTACT): 3e+09 M⁻¹"
Cn1cc(NC(=O)c2ccc3nc(-c4sccc4Cl)[nH]c3c2)cc1-c1nc2ccc(C(=O)NCCN3CCOCC3)cc2[nH]1 [Compound I-1],+++ (MIC ≦4),>32,+++ (MIC ≦4),+++ (MIC ≦4),+++ (MIC ≦4),>32 µg/mL,,,,,Minimum Inhibitory Concentration (MIC) (S. aureus ATCC 13709): +++ (MIC ≦4)
Cn1cc(NC(=O)c2sccc2Cl)cc1C(=O)Nc1cc(-c2nc3ccc(C(=O)NCCN4CCOCC4)cc3[nH]2)n(C)c1 [Compound I-3],+++ (MIC ≦4),>32,+++ (MIC ≦4),+++ (MIC ≦4),+++ (MIC ≦4),+++ (MIC ≦4),+++ (MIC ≦4),+++ (MIC ≦4),+++ (MIC ≦4),,Minimum Inhibitory Concentration (MIC) (S. aureus ATCC 13709): +++ (MIC ≦4)
Cn1cc(NC(=O)c2cc(NC(=O)c3ccc4nc(-c5sccc5Cl)[nH]c4c3)cn2C)cc1C(=O)NCCN1CCOCC1 [Compound I-4],,>32,+++ (MIC ≦4),>32 µg/mL,>32 µg/mL,>32 µg/mL,,,,,"Minimum Inhibitory Concentration (MIC) (S. aureus ATCC 29213): + (MIC from 12 to 32, inclusive)"
Cn1cc(NC(=O)c2cc(NC(=O)c3ccc4nc(-c5sc6ccccc6c5Cl)[nH]c4c3)cn2C)cc1C(=O)NCCN1CCOCC1 [Compound I-5],,>32,>32 µg/mL,>32 µg/mL,>32 µg/mL,>32 µg/mL,,,,,Minimum Inhibitory Concentration (MIC) (S. aureus ATCC 29213): >32 µg/mL
CN(C)CCCNC(=O)CCNC(=O)c1cc(NC(=O)c2cc(NC(=O)CCNC(=O)c3cc(NC(=O)c4ccc5nc(-c6cc(Br)c(Br)s6)[nH]c5c4)cn3C)cn2C)cn1C [Compound I-6],,>32,>32 µg/mL,>32 µg/mL,>32 µg/mL,>32 µg/mL,,,,,Minimum Inhibitory Concentration (MIC) (S. aureus ATCC 29213): >32 µg/mL
CN(C)CCCNC(=O)CCNC(=O)c1cc(NC(=O)c2cc(NC(=O)c3cc(NC(=O)c4nc(NC(=O)CCCNC(=O)c5cc(NC(=O)c6cc(NC(=O)c7ccc8nc(-c9nccn9C)[nH]c8c7)cn6C)cn5C)cn4C)cn3C)cn2C)cn1C [Compound I-8],,,,,,,,,,,"Association Constant, Ka (DNA sequence ACTACT): 5e+09 M⁻¹; Association Constant, Ka (DNA sequence AATACT): 1e+09 M⁻¹; Association Constant, Ka (DNA sequence ACTAGT): <1e+08 M⁻¹; Association Constant, Ka (DNA sequence ATTACT): 5e+09 M⁻¹; Association Constant, Ka (DNA sequence AGTACT): 1e+11 M⁻¹"
CN(C)CCCNC(=O)CCNC(=O)c1cc(NC(=O)c2cc(NC(=O)c3cc(NC(=O)c4nc(NC(=O)CCCNC(=O)c5cc(NC(=O)c6cc(NC(=O)c7ccc8nc(-c9nsc(Cl)c9Cl)[nH]c8c7)cn6C)cn5C)cn4C)cn3C)cn2C)cn1C [Compound I-9],,,,,,,,,,,"Association Constant, Ka (DNA sequence ACTACT): 5e+09 M⁻¹; Association Constant, Ka (DNA sequence AATACT): 1e+09 M⁻¹; Association Constant, Ka (DNA sequence ACTAGT): <1e+08 M⁻¹; Association Constant, Ka (DNA sequence ATTACT): 5e+09 M⁻¹; Association Constant, Ka (DNA sequence AGTACT): 1e+11 M⁻¹"
Cn1cc(NC(=O)c2ccc3nc(-c4cc(NC(=O)c5ccc(F)cc5F)cn4C)[nH]c3c2)cc1C(=O)NCCN1CCCCC1 [Compound I-35],+++ (MIC ≦4),,,,,,+++ (MIC ≦4),+++ (MIC ≦4),+++ (MIC ≦4),+++ (MIC ≦4),
Cn1cc(NC(=O)c2sccc2Cl)cc1C(=O)Nc1cc(-c2nc3ccc(C(=O)NCCN4CCCCC4)cc3[nH]2)n(C)c1 [Compound I-36],+++ (MIC ≦4),,,,,,+++ (MIC ≦4),+++ (MIC ≦4),+++ (MIC ≦4),+++ (MIC ≦4),
Cn1cc(NC(=O)c2sccc2Cl)cc1C(=O)Nc1cc(-c2nc3ccc(C(=O)NCCN4CCSCC4)cc3[nH]2)n(C)c1 [Compound I-38],+++ (MIC ≦4),,,,,,+++ (MIC ≦4),+++ (MIC ≦4),+++ (MIC ≦4),+++ (MIC ≦4),
Cn1cc(NC(=O)c2ccc3nc(-c4cc(NC(=O)c5ccc(F)cc5F)cn4C)[nH]c3c2)cc1C(=O)NCCN1CCOCC1 [Compound I-39],+++ (MIC ≦4),,,,,,+++ (MIC ≦4),+++ (MIC ≦4),+++ (MIC ≦4),+++ (MIC ≦4),
CCN(CC)CCNC(=O)c1ccc2nc(-c3cc(NC(=O)c4cc(NC(=O)c5sccc5Cl)cn4C)cn3C)[nH]c2c1 [Compound I-40],+++ (MIC ≦4),,,,,,+++ (MIC ≦4),+++ (MIC ≦4),+++ (MIC ≦4),+++ (MIC ≦4),

# Source: patent US6716866B2, “Aryl-benzimidazole compounds having antiinfective activity” (GeneSoft Pharmaceuticals, Inc., priority 2001, dated 2004)
